SMILES | melting point [°C]
C=C(C)C(=O)NC(=O)NCc1ccccc1 | 96 to 98
COc1ccc2cc(C(=O)CNC(=O)c3cn(Cc4ccccc4)c4ccccc34)ccc2c1 | 177 to 179
Cc1cc(C)nc(NC(=N)Nc2ccccc2C(F)(F)F)n1 | 161 to 162
N#CSCC(I)=C(I)CSC#N | 190
CCCCCCCC(=O)OC(C)c1ccc(-c2ccc(OCc3ccccc3)cc2)cc1 (single isomer, unassigned; (+)) | 91 to 92
Cc1nc2ccc(Nc3nccc(-c4ccc(N5CCNCC5)nc4)n3)cc2[nH]1 | 245 to 250
COc1ccc2[nH]cc(CCN=c3sc4ccccc4s3)c2c1 | 139 to 140
CCn1cc(C(=O)O)c(=O)c2cnc(N3CCN(C(C)=O)CC3)nc21 | 298 to 300
NC(=O)C1N=COC1CCl (stereo not drawn) | 110 to 112
CCCCCCCCCCCCn1nnc(CCC(=O)Nc2ccc(F)cc2F)n1 | 86 to 87
C=CCCCCCCCCC(=O)OC1CCC2C3CCC4=CC(=O)CCC4C3CCC12CC (stereo not drawn) | 87 to 88
COc1ccc(C(=O)c2ccc(=O)[nH]c2C=CN(C)C)cc1 | 216 to 218
O=C(O)CCC(=O)c1ccc(-c2ccc(Cl)cc2)cc1 | 184 to 185
CN(C)c1ccc(NC(=S)NCC(C)(C)C)cc1 | 174 to 176
C=CCOC(=O)OCN1C(=O)C(c2cn(C)c3ccccc23)=C(c2cn(C)c3cc([N+](=O)[O-])ccc23)C1=O | 191 to 194
Nc1nc(CCc2ccccc2)cc(C2CCN(C(=O)c3ccccc3)CC2)n1 | 104 to 106
COc1ccc(Nc2nc(NC(C)C)nc(Oc3ccccc3C#CC(C)(C)O)n2)cc1Cl | 138 to 140
C=Cn1ccnc1C(O)(c1ccc(Cl)cc1)c1ccc(Cl)cc1 | 174

SMILES | melting point [°C]
CC(c1n[nH]c(=O)[nH]1)N1CCC[C@H](O[C@H](C)c2cc(C(F)(F)F)cc(C(F)(F)F)c2)[C@@H]1c1ccccc1 (stereo partly drawn) | 257 to 258
O=C(N[C@H](Cc1ccc(C(F)(F)F)cc1)[C@H](O)c1ccc(F)cc1)c1ccc(C(F)(F)F)cc1 (racemic) | 162 to 163
OCc1cc(F)c(Cl)nc1Cl | 65 to 67
CSc1nc2ccc(Br)cc2o1 | 95 to 96
CC(C)Nc1cccnc1N1CCN(C(=O)c2ccc(C(=O)N3CCNCC3)cc2)CC1 | 175 to 176
COc1cc(F)c(-c2cncc(OC3SCC(OC(C)=O)C(OC(C)=O)C3OC(C)=O)c2)c(F)c1 (stereo not drawn) | 62
COCc1cc(CCCOc2c(Cl)cc(-c3noc(C)n3)cc2Cl)on1 | 55.5 to 56
CCOC(=O)c1cc(Cl)n2nc(C)nc2n1 | 134 to 136
Nc1cc(-n2cc(C(=O)O)c(=O)c3cc(F)c(Cl)nc32)c(F)cc1F | > 270
CS(=O)(=O)c1ccc(-c2oc(-c3ccccc3)nc2-c2ccc(F)cc2)cc1 | 204 to 205
COCOCc1nc(-c2ccccc2)oc1CO | 70 to 71
COc1cc2ncc(C#N)c(Nc3ccc(Cl)cc3F)c2cc1OC | 139 to 141
COc1ccc(C(=O)CCC(=O)c2ccc(OC)c(OC)c2)cc1OC | 181 to 182
NC(=NCC(F)(F)F)Nc1cncc(SCCCC(=O)Nc2ccccc2)n1 | 165 to 167
CCOCC1OC(n2cnc3c(N)nc(Cl)nc32)C(O)C1O (stereo not drawn) | 117 to 119
O=C(CCl)Nc1ccccn1 | 114 to 117
CCCCc1nc2ccccc2n1CCC(=O)O | 177 to 178

Other lines, results leading:

melting point [°C] | SMILES
226 | COc1ccc(-c2[nH]nc3c2C(=O)c2c(NC(=O)Cc4cc(OC)ccc4OC)cccc2-3)cc1
214 to 217 | CCCc1cc(-c2ccc(Cl)cc2)nc2c(C(=O)Nc3cccc(S(C)(=O)=O)c3)cnn12
214 | CCOC(=O)C1=C(c2ccccc2)Nc2n[nH]cc2C1c1cccc(Cl)c1Cl (stereo not drawn)
82 to 83 | COc1ccc2cc(C#N)sc2c1
85 to 87 | CCCC[C@H](NC(=O)[C@H](C)NC(=O)OCc1ccccc1)C(=O)CSCc1ccco1
67 to 70 | COc1cc(C=CC(=O)CCCOc2ccccc2)ccc1O
144 to 146 | O=C(O)Cc1ccc(-c2ccc(F)cc2)c(F)c1
155 to 157 | CCc1c(N)c(C(N)=O)nn1C1CN(CC)C1
97 to 98 | Cc1ccnc2c1C(=O)CC(c1ccccc1Cl)C2 (stereo not drawn)
> 260 | CCCn1c(C)nc2cc(C(=O)O)ccc21
135 to 138 | COC(=O)c1cc(CSc2ccccc2)cnc1C1=NC(C)(C(C)C)C(=O)N1 (stereo not drawn)
76 to 78 | CC(=O)OCC1OC(n2cc(C(I)=CI)c(=O)[nH]c2=O)CC1OC(C)=O (stereo not drawn)
50 | c1ccc(OCCSCc2nnc(-c3ccc(OCCCN4CCCCCC4)cc3)o2)cc1
107 to 108 | O=C(O)c1cc(OCc2ccccc2)ccc1OCc1ccccc1
221 to 223 | COC(=O)C1=C(C)NC(C)=C(P2(=O)OCCCO2)C1c1cccc([N+](=O)[O-])c1 (stereo not drawn)
92 to 94 | CC(C(SC(=S)N(C)C)c1ccccc1)[N+](=O)[O-] (stereo not drawn)
79 | O=C1[C@@H]2CSC(c3ccccc3)N2C(=O)N1Cc1ccccc1 (stereo partly drawn)
72 | Cc1cc(O)c(Cl)c(O)c1
180 to 182 | Cc1ccc2c(c1)c(=O)[nH]c(=O)n2CCCCN1CCC(OC(c2ccccc2)c2ccccc2)CC1

melting point [°C] | SMILES
237 | COc1ccc2c(c1)c(-c1[nH]c3ncccc3c1C)cn2C
164 | O=[N+]([O-])c1cc(Cl)c(Oc2ccccc2)c(Cl)c1Oc1ccccc1
168 to 173 | CN(Cc1ccccc1)c1ccc(C(=O)O)nc1
124 to 125 | O=C(N[C@@H](CCC1CCCCC1)[C@@H](O)[C@@H](O)CN1CCOCC1)OCc1ccccc1
100 | Cc1ccc2c(NCc3ccc(NC(=O)C4CCN(Cc5ccccc5)CC4)cc3)nc(N(C)C)nc2c1
134 | COc1ccc2ccc3c(c2c1)C=C(C#N)CO3
140 to 142 | CCSc1ccc(-c2cccnc2)c2c1C(=O)CC(C)C2 (stereo not drawn)
149 to 151 | COc1ccc2c(c1)cc(C(=O)c1ccc(C)cc1)n2C
153 | Cc1nc(N)sc1S(=O)(=O)NCCN(C)C
66 to 69 | COc1cc(OC)nc(NC(=O)NS(=O)(=O)Nc2ccccc2C(O)C2CC2)n1 (stereo not drawn)
70 to 73 | COC(=O)C(=C(C)NCC(O)CO)c1nc(NC(C)=O)c([N+](=O)[O-])nc1Cl (stereo not drawn)
113 to 115 | Cc1cc(-c2cc(CBr)c(=O)n(Cc3ccccc3Cl)n2)ccc1F
156 | O=C(Nc1ccc2ccc(-c3ccccc3Cl)nc2n1)c1ccccc1
136 to 138 | NC(=O)c1ccc(-c2ccc(C(CC3CCOCC3)c3ccc(S(=O)(=O)C4CC4)cc3)[nH]2)nc1 (stereo not drawn)
152 | CCOc1nc(=O)n(C(=O)NC)s1
245 to 247 | COc1ccc(-c2nc(C(=O)c3ccc(F)cc3)c[nH]2)cc1
171 to 173 | O=C(O)Cc1ccc(OCc2c(Cl)cccc2C(=O)O)cc1
290 to 291 | Cc1ccc2nc(C)c(C(=O)NNC(=O)CCl)n2c1
200 to 204 | CN(Cc1cc2c(=O)c(C(=O)NCc3ccc(Cl)cc3)cn(C)c2o1)CC(O)CSc1nnc(N)s1 (stereo not drawn)

Reference: a melting point compilation (Tetko et al.; mined from patent text by program, amines drawn as free bases though some values may be those of a salt)
